Data published in patent publication US10646459B2, “Sphingosine pathway modulating compounds for the treatment of cancers” (Enzo Biochem, Inc., priority 2017, dated 2020).

Legend:
Huh7 cells = assay: Apoptosis/necrosis assay (flow cytometry), Huh7 cells; assay type: cell-based, human; settings: 24 hours; SK1-I 10, 20, 40 μM; ozanimod 5, 10, 20 μM; ABC294640 10, 20, 40 μM; vs no-drug control
Description: (§1) Apoptosis/necrosis assays evaluating the effect of different concentrations of each of ozanimod, ABC294640 and SK1-I on the four human hepatocellular carcinoma cell lines, Hep G2, Hep 3B, Huh 7 and PLC-PRF5 were also performed.
(§2) The protocol used for the apoptosis assays was: • Plated cells in 6-well plates and incubated at 37° C. overnight. • Prepared concentrations of test compound and control compound DMSO in media. • Ozanimod: 5 μM, 10 μM, and 20 μM. • ABC294640: 10 μM, 20 μM, and 40 μM. • SK1-I: 10 μM, 20 μM, and 40 μM. • Control: 0.2% DMSO. • Aspirated the medium from the 6-well plates and added test compound concentrations in media or 0.2% DMSO control in media. Incubated at 37° C. for 24 hours. • Collected and processed the cells following the flow cytometry protocol of the GFP Certified® Apoptosis/Necrosis detection kit from Enzo Life Sciences, Inc. (product no. ENZ-51002; Farmingdale, N.Y., USA).
(§3) FIGS. 5-16 present graphs plotting the data from these 24-hour apoptosis assays for the different concentrations of compounds and no-drug control for the various cell lines. Channel FL2 picks up the apoptosis signal and channel FL3 picks up the necrosis signal. Data points in Quadrant 3 (Q3) in the graphs corresponds to cells undergoing apoptosis (cells positive for the apoptosis detection reagent of the assay). Data points in Quadrant 2 (Q2) in the graphs corresponds to cells that are positive for the apoptosis detection reagent and positive for the necrosis detection reagent of the assay (indicative of late-stage apoptosis).

PLC-PRF5 cells = assay: Apoptosis/necrosis assay (flow cytometry), PLC-PRF5 cells; assay type: cell-based, human; settings: 24 hours; SK1-I 10, 20, 40 μM; ozanimod 5, 10, 20 μM; ABC294640 10, 20, 40 μM; vs no-drug control
Description: as §1, §2, §3

Hep 3B cells = assay: Apoptosis/necrosis assay (flow cytometry), Hep 3B cells; assay type: cell-based, human; settings: 24 hours; SK1-I 10, 20, 40 μM; ozanimod 10, 20, 40 μM; ABC294640 10, 20, 40 μM; vs no-drug control
Description: as §1
(§4) The protocol used for the apoptosis assays was: • Plated cells in 6-well plates and incubated at 37° C. overnight. • Prepared […], 20 μM, and 40 μM. • SK1-I: 10 μM, 20 μM, and 40 μM. • Control: 0.2% DMSO. • Aspirated the medium from the 6-well plates and added test compound concentrations in media or 0.2% DMSO control in media. Incubated at 37° C. for 24 hours. • Collected and processed the cells following the flow cytometry protocol of the GFP Certified® Apoptosis/Necrosis detection kit from Enzo Life Sciences, Inc. (product no. ENZ-51002; Farmingdale, N.Y., USA).
as §3

Hep G2 cells = assay: Apoptosis/necrosis assay (flow cytometry), Hep G2 cells; assay type: cell-based, human; settings: 24 hours; SK1-I 10, 20, 40 μM; ozanimod 10, 20, 40 μM; ABC294640 10, 20, 40 μM; vs no-drug control
Description: as §1, §4, §3

[1] = test system: Jurkat cells (human T-cell leukemia cell line); assay: Apoptosis assay, Jurkat cells; assay type: cell-based; settings: SK1-I 10, 20 μM; ozanimod 5, 10 μM; vs no-drug control
Description: as §2
as §3, with “apoptosis). […]” for “apoptosis).”

[2] = test system: primary human hepatocytes; assay: Apoptosis/necrosis assay, normal primary human hepatocytes; assay type: cell-based; settings: 24 hours; SK1-I 10, 20, 40 μM; ozanimod 2.5, 5, 10 μM; normal (non-cancerous) cells
Description: In still further experiments, the effects of SK1-I and ozanimod on normal (non-cancerous) primary human hepatocytes were investigated. Fresh human hepatocytes in a 12-well plate (HUF12) were obtained from Triangle Research Labs (Durham, N.C., USA; part of Lonza Group) and handled according to the supplier's protocol. The shipping medium was aspirated from each well and replaced with 1 ml per well of warm Hepatocyte Maintenance Medium. The plate was then placed in a 5% CO2 incubator at 37° C. and the hepatocytes were allowed to acclimate overnight. The Hepatocyte Maintenance Medium was replaced before treatment with drug or no-drug control, and the hepatocytes were treated with 0 μM (no-drug control), 10 μM, 20 μM, or 40 μM SK1-I or 0 μM, 2.5 μM, 5 μM, or 10 μM ozanimod for 24 hours under incubation. The cells were then harvested and analyzed using the GFP Certified® Apoptosis/Necrosis detection kit. The results are shown in FIGS. 19A-D for SK1-I and FIGS. 20A-D for ozanimod as follows.

[3] = test system: human hepatocellular carcinoma cell lines Hep G2, Huh 7, and PLC-PRF5; assay: MTT cell viability assay (48 hours); assay type: cell-based; settings: Hep G2, Huh 7, PLC-PRF5
Description: The following MTT assay protocol was followed. • Prepared stock solutions: 50 mM ozanimod, 50 mM ABC294640, 10 mM SK1-I in DMSO. • Plated 20000 cells in 160 μl medium per well in 96-well plates for each cell line and incubated at 37° C. overnight. • Prepared compound serial dilutions: for ozanimod and ABC294640: dilute stock 50 mM 1:50 in medium to 1000 μM; for SK1-I, dilute stock 10 mM 1:50 in medium to […], them make serial 1:1.8 fold serial dilution to the titration. For negative control, diluted DMSO 1:50 to medium. • Added 40 μl negative control and serially titrated compounds to 160 μl of cells for each cell line. Performed in triplicate for each cell line. • Incubated at 37° C. for 72 hours. • Performed assay using Vybrant MTT Cell Proliferation Assay kit (V-13154) (Molecular Probes) from Thermo Fisher Scientific (Waltham, Mass. USA).
48-hour treatment MTT assays were also performed as follows.

SMILES	induction of apoptosis in Huh7 cells (Huh7 cells)	induction of apoptosis in PLC-PRF5 cells (PLC-PRF5 cells)	induction of apoptosis in Hep 3B cells (Hep 3B cells)	induction of apoptosis in Hep G2 cells (Hep G2 cells)	induction of apoptosis in Jurkat cells [1]	induction of apoptosis of primary human hepatocytes [2]	killing of hepatocellular carcinoma cells (MTT), comparison with PF-543 [3]
O=C(NCc1ccncc1)C12CC3C[C@H](C1)CC(c1ccc(Cl)cc1)(C3)C2 [ABC294640, (7S)-3-(4-chlorophenyl)-N-(pyridin-4-ylmethyl)adamantane-1-carboxamide]	failed to induce apoptosis	did not substantially induce apoptosis	did not substantially induce apoptosis	failed to induce apoptosis			
CC(C)Oc1ccc(-c2nc(-c3cccc4c3CC[C@@H]4NCCO)no2)cc1C#N [Ozanimod, 5-[3-[(1S)-1-(2-hydroxyethylamino)-2,3-dihydro-1H-inden-4-yl]-1,2,4-oxadiazol-5-yl]-2-propan-2-yloxybenzonitrile]	strongly induced apoptosis	strongly induced apoptosis	strongly induced apoptosis	strongly induced apoptosis	strongly induced apoptosis	did not induce apoptosis	
CCCCCc1ccc(/C=C/[C@H](O)[C@@H](CO)NC)cc1 [SK1-I, (E,2R,3S)-2-(methylamino)-5-(4-pentylphenyl)pent-4-ene-1,3-diol]	strongly induced apoptosis	strongly induced apoptosis	strongly induced apoptosis	strongly induced apoptosis	strongly induced apoptosis	did not induce apoptosis	more effective at killing hepatocellular carcinoma cells than PF-543
